What was measured:
[1] = biological target: T1, P-gp (Homo sapiens, UniProt P08183); test: Rhodamine-123 efflux assay, K562-DR; format: cell-based; set-up: K562-DR cell expressed P-gp at high level when compared with parental drug sensitive cells thereof; endogenous in cells; details: 10 μM, 1 hour efflux
Method: (§1) (Fs: cellular fluorescence intensity of Rb-123 in the presence of testing drugs; Fo: cellular fluorescence intensity of Rh-123 in the absence of any P-gp modulator).
(§2) 1.4 Test for Rh-123 transport: HepG2-DR cells or K562-DR cells (1×10^6 cells in 1 mL complete growth medium) were incubated with 5 μg/mL, Rh-123 at 37° C. for 1 hour to allow Rh-123 uptake. […] Cellular fluorescence of Rh-123 was determined by flow cytometry to analyze the inhibitive effect of test compounds on drug expulsion from cells.

[2] = biological target: T1, P-gp; test: Rhodamine-123 efflux assay, HepG2-DR; format: cell-based; set-up: KB V1, HepG2-DR and K562-DR cell expressed P-gp at high level when compared with parental drug sensitive cells thereof; endogenous in cells; host or cells: HepG2-DR (doxorubicin-maintained multidrug resistant subline of HepG2); details: 10 μM, 1 hour efflux
Method: as §1, §2

T1 sequence (P08183 whole entry): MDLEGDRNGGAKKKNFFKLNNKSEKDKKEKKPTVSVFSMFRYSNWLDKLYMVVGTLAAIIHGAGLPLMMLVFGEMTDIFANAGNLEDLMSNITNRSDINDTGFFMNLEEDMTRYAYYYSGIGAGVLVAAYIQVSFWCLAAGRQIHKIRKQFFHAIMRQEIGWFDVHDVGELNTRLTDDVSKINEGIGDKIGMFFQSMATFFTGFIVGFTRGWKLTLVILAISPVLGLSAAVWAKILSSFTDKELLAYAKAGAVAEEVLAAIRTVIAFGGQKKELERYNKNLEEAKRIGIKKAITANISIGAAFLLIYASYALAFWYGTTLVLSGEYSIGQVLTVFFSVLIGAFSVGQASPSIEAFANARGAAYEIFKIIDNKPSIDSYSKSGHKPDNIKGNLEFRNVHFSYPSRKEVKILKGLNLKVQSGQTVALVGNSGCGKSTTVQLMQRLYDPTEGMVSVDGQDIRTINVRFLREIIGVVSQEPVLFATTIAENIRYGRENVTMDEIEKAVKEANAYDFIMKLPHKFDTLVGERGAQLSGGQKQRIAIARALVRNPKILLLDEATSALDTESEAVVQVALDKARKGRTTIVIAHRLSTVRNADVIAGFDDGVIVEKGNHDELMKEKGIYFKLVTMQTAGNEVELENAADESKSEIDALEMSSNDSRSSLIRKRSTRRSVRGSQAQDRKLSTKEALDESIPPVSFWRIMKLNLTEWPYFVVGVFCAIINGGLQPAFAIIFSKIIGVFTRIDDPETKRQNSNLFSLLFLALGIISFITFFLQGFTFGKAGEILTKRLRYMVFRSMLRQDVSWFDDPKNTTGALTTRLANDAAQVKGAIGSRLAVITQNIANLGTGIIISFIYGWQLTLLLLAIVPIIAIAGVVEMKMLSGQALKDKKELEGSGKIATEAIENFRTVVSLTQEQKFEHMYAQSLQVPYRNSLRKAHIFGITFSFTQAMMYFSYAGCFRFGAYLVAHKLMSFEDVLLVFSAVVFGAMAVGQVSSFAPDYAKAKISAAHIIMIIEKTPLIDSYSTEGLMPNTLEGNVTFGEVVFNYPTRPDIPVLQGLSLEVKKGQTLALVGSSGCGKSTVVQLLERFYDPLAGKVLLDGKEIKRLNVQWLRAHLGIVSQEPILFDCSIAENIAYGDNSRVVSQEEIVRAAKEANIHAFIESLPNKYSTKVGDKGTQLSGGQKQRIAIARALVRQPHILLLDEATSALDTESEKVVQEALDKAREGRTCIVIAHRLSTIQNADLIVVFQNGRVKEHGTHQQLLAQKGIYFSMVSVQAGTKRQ

| Compound | Increase in cellular Rh-123 fluorescence compared with untreated cells [1] | Increase in cellular Rh-123 fluorescence compared with untreated cells [2] |
| --- | --- | --- |
| COc1ccc(C(=O)O[C@@H]2c3c(ccc4ccc(=O)oc34)OC(C)(C)[C@@H]2OC(=O)c2ccc(OC)c(OC)c2)cc1OC (racemic) [cis-DMDBK, (±)-3′-O,4′-O-bis(3,4-dimethoxybenzoyl)-cis-khellactone] | 140% | 400% |
| COc1ccc(/C=C/C(=O)O[C@@H]2c3c(ccc4ccc(=O)oc34)OC(C)(C)[C@@H]2OC(=O)/C=C/c2ccc(OC)c(OC)c2)cc1OC (racemic) [cis-DMDCK, (±)-3′-O,4′-O-bis(3,4-dimethoxycinnamoyl)-cis-khellactone] | 200% | 480% |

— patent US20090111836A1, “Angular Pyranocoumarins, Process for Preparation and Uses Thereof” (CITY UNIVERSITY OF HONG KONG, priority 2007, published 2009)
